pIC50: −log10 of the molar value. Values joined by “and” are separate entries in the source; they are usually repeats but may differ in a detail not shown here. Equal entries are not always repeated. “Also recorded” adds a separate entry of the source.
How the values were obtained:
[1] = system: 503 cancer cell lines; test: Compound activity profile against 503 cancer cell lines (72 h, Cell TiterGlo); type: cell-based; details: sensitive = Amax <50% and IC50 <5 μM
Method: Supplementary figure 1. […] A plot […]
of normalized maximal inhibition (Y axis) versus the inflection point (X Axis) of a standard dose-response curve for increasing concentrations of FR171456 incubated with 503 mammalian cell lines in culture for 72h (each symbol), as determined by Cell TiterGlo (Promega)

[2] = system: Saccharomyces cerevisiae NF3201; test: Antifungal MIC; type: cell-based
[3] = system: Rhizopus oryzae NF4801; test: Antifungal MIC; type: cell-based; details: Rhizopus arrhizus
[4] = system: Candida glabrata NF2905; test: Antifungal MIC; type: cell-based; details: Nakaseomyces glabratus
[5] = system: Aspergillus favus NF4902; test: Antifungal MIC; type: cell-based
[6] = system: S. cerevisiae (BY4743 strain); test: Yeast growth inhibition dose response (OD600); type: cell-based; details: BY4743, 14 h, 30 °C, YPD, 2% DMSO
Method: Figure 2 FR171456 targets Erg26p in S. cerevisiae. (a) Structures of FR171456, and two related triterpenes (compound 1, compound 2). (b) Duplicate 12-point Dose response curves of wild-type diploid yeast with three compounds in a. Strain BY4743 was grown for 14 h at 30 °C in YPD media with 2% DMSO containing a dilution series of FR171456: black; Compound-1: light grey circles, and Compound-2: light grey squares. Y axis: OD600 absorbance indicating yeast growth, x axis: compound concentrations (log10 μM). (c) Haploinsufficiency and homozygous profiling (HIP resp. HOP) for FR171456 at 4 μM. Each mutant strain in the pool is represented by a circle (non-essential genes) or a square (essential genes). The, y axis represents strain sensitivity and x axis represents z-score (specificity). In (d), the z-scores of the HIP pool strains (y axis) plotted against increasing doses of FR171456 (x axis; μM). (e) Relative compound sensitivity profile of the erg26Δ/ERG26 strain across HIP experiments performed with 1,800 diverse small molecule yeast proliferation inhibitors. TEXT PRINTED IN THE PICTURE: (a) FR171456: MW 516.68; S.c. […] IC50 >200 μM | (a) Compound 2: MW 532.68; S.c. IC50 >200 μM

[7] = system: erg26Δ haploid yeast expressing mutant ERG26 alleles; test: Growth dose response of erg26Δ haploid yeast expressing mutant ERG26 alleles; type: cell-based, S. cerevisiae; details: seven mutant ERG26 alleles, rich liquid media
Source text: To confirm that the observed ERG26 mutations are dominant and sufficient to confer FR171456 resistance, but retain the essential function of Erg26p, we assessed the growth of erg26Δ haploid yeast expressing wild-type ERG26 or one of seven mutant alleles inserted at another locus in rich liquid media. […] It was not possible to generate a haploid strain carrying a single copy of ERG26 encoding the Gly90Ser mutation after multiple attempts. Thus seven of the eight mutations within the coding region of ERG26 are both dominant for FR171456 resistance and retain sufficient enzymatic function to support life. This additional genetic data set confirms that Erg26p is the target of FR171456.
For EMS mutagenesis experiments, 1 × 10^8 cells were plated on one standard YPD agar plate containing 50 μM FR171456 in 2% DMSO v/v following a standard EMS mutagenesis protocol. After 2 days incubation at 30 °C 48 representative colonies were picked and retested in an overnight liquid assay for growth in YPD with or without 50 μM FR171456 in 2% DMSO v/v. Genomic DNA was prepared from 42 resistant clones (+ one wild type) and for each the entire ERG26 gene was sequenced following PCR amplification with high-fidelity polymerase. […]

[8] = target: delta-opioid receptor (Homo sapiens, UniProt P41143); test: Radioligand competition assay; type: binding
Chain of delta-opioid receptor (P41143 whole entry): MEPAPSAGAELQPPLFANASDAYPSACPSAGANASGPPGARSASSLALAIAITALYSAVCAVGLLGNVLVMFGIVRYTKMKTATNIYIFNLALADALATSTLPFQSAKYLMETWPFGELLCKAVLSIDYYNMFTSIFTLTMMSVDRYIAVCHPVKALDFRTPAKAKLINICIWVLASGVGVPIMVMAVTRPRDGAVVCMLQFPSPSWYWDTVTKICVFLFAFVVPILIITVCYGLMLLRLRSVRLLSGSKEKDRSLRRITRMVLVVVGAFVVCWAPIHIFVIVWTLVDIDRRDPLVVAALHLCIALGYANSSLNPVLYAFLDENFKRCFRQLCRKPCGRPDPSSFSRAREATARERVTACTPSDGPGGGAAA

[9] = system: panel of 24 receptors/enzymes; test: Pharmacological profiling against a panel of 24 receptors/enzymes; type: binding
[10] = system: serum cholesterol; details: cited from earlier work

Question: With `C=C(CCC(C)C1CCC2C1(C)CC(O)C13CC14C(=O)CC(O)C(C)(C(=O)O)C4C(=O)CC23O)C(C)C` [FR171456, (1R,2aR,3R,5aR,5bS,7aR,8S,9S,11aS,12aR)-1,5b,9-trihydroxy-2a,8-dimethyl-3-((R)-6-methyl-5-methyleneheptan-2-yl)-7,11-dioxohexadecahydrocyclopenta[a]cyclopropa[e]-phenanthrene-8-carboxylic acid] as the compound, how does the “anti-proliferative activity across cell line panel” value [1] read?
Answer: not anti-proliferative; also recorded: unaffected; also recorded: only five cell lines were sensitive

Question: And the MIC [2]?
Answer: 8 µg/mL and 18 µM

Question: And the MIC [3]?
Answer: 8 µg/mL and 18 µM

Question: What about the MIC [4] of the same compound?
Answer: 16 µg/mL and 36 µM

Question: And the MIC [5]?
Answer: 64 µg/mL and 144 µM

Question: What about the pIC50 [6] of the same compound?
Answer: 4.87

Question: And the pIC50 ([6]; Saccharomyces cerevisiae, 14 h)?
Answer: 4.85

Question: And the “change of growth IC50 compared with the isogenic control” value [7]?
Answer: increase in the IC50

Question: And the pIC50 [8]?
Answer: 7.00

Question: And the “specificity in receptor/enzyme panel” value [9]?
Answer: only one target with significant binding

Question: What about the “dose giving significant reduction in serum cholesterol” value ([10]; rabbits treated for 3 weeks ref 14) of the same compound?
Answer: 1 µg/kg

Question: What about the adverse effects ([10]; rabbits, 3 weeks, doses up to 1 mg kg^−1 ref 14) of the same compound?
Answer: no adverse effects reported

Question: And the side effects ([10]; rabbits, efficacious doses for 14 days ref 14)?
Answer: no reported side effects

Reference: article PMC4633953, “FR171456 is a specific inhibitor of mammalian NSDHL and yeast Erg26p” (Nature Communications, 2015)
